# Measurements taken from patent publication US7419780B2, “Methods and assays for screening protein targets” (The Trustees of Columbia University in the City of New York, priority 2000, dated 2008).
# How the values were obtained:
# Type in all cases: cell-based, S. cerevisiae
# Settings in all cases: 1 uM small molecule, difference to activity without small molecule, average of two trials
# [1] = biological target: T1, LexA (GSG)2mDHFR / B42 rGR2 (UniProt P00375+P06536, C656G/F620S); experiment: β-galactosidase activity assay, strain V502Y
# T1 construct: rat Glucocorticoid Receptor (aa 524-795) with point mutations; expressed in transfected cells; host or cells: S. cerevisiae FY250
# T1 sequence (P00375 1-187): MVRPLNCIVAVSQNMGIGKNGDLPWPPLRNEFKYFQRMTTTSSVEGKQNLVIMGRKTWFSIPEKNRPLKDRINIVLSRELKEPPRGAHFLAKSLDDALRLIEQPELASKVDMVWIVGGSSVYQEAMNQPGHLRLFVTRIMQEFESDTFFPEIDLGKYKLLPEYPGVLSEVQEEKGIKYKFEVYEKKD
# T1 sequence (P06536 524-795 F620S/C656G limits assumed): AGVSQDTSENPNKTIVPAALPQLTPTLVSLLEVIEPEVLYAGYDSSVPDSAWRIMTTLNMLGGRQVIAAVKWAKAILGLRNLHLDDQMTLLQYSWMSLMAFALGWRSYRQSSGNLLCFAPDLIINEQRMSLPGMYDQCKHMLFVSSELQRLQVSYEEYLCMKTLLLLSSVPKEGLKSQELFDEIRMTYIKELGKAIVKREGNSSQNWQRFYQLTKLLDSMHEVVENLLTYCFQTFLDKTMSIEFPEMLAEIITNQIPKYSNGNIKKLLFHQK
# From the text: (§1) Table III explains the components of each strain. Each strain was constructed from the parent yeast strain FY250 and also contains the pMW106 plasmid, which has the LacZ reporter gene that is turned on only in when the LexA DNA binding domain and the B42 activation are brought in tot he vicinity of each other. We use several different strains because we use DHFR from two different species, mDHFR is from murine, while eDHFR is from E. coli. We are asl oable to switch the small moleculebinding domains. For example, the strain containing LexA-eDHFR with B42-rGH2 is a different strain and behaves differently from the strain containing LexA-rGR2 with B42-eDHFR. We also put in short 6 amino acid linkers between the two domains of our protein chimeras and thus these are different strain as well.
# (§2) The results in Table IV are averages of two separate trials. Each strain was examined with small molecules and without small molecules. The absolute activity is given as the β-galactisidase activity […]. The average β-galactosidse activity for a strain without small molecule (i.e. the negative control) was about 100 β-galactosidase units.
# [2] = biological target: T2, LexA eDHFR / B42 rGR2 (UniProt P06536+P0ABQ4, C656G/F620S); experiment: β-galactosidase activity assay, strain V493Y
# T2 construct: rat Glucocorticoid Receptor (aa 524-795) with point mutations; expressed in transfected cells; host or cells: S. cerevisiae FY250
# T2 sequence (P0ABQ4 1-159): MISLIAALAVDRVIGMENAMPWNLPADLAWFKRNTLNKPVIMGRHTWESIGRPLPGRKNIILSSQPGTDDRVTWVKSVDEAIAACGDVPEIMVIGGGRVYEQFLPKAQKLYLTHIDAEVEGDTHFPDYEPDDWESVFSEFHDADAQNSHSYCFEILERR
# T2 sequence (P06536 524-795 F620S/C656G limits assumed): T1 sequence (P06536 524-795 F620S/C656G limits assumed)
# From the text: as §1, §2
# [3] = biological target: T3, LexA mDHFR / B42 (GSG)rGR2 (UniProt P00375+P06536, C656G/F620S); experiment: β-galactosidase activity assay, strain V497Y
# T3 construct: rat Glucocorticoid Receptor (aa 524-795) with point mutations; expressed in transfected cells; host or cells: S. cerevisiae FY250
# T3 sequence (P00375 1-187): T1 sequence (P00375 1-187)
# T3 sequence (P06536 524-795 F620S/C656G limits assumed): T1 sequence (P06536 524-795 F620S/C656G limits assumed)
# From the text: as §1, §2
# [4] = biological target: T4, LexA (GSG)2eDHFR / B42 rGR2 (UniProt P06536+P0ABQ4, C656G/F620S); experiment: β-galactosidase activity assay, strain V498Y
# T4 construct: rat Glucocorticoid Receptor (aa 524-795) with point mutations; expressed in transfected cells; host or cells: S. cerevisiae FY250
# T4 sequence (P0ABQ4 1-159): T2 sequence (P0ABQ4 1-159)
# T4 sequence (P06536 524-795 F620S/C656G limits assumed): T1 sequence (P06536 524-795 F620S/C656G limits assumed)
# From the text: as §1, §2
# [5] = biological target: T5, LexA (GSG)2rGR2 / B42 (GSG)2eDHFR (UniProt P06536+P0ABQ4, C656G/F620S); experiment: β-galactosidase activity assay, strain V510Y
# T5 construct: rat Glucocorticoid Receptor (aa 524-795) with point mutations; expressed in transfected cells; host or cells: S. cerevisiae FY250
# T5 sequence (P06536 524-795 F620S/C656G limits assumed): T1 sequence (P06536 524-795 F620S/C656G limits assumed)
# T5 sequence (P0ABQ4 1-159): T2 sequence (P0ABQ4 1-159)
# From the text: as §1, §2
# [6] = biological target: T6, LexA (GSG)2mDHFR / B42 gly6rGR2 (UniProt P00375+P06536, C656G/F620S); experiment: β-galactosidase activity assay, strain V503Y
# T6 construct: expressed in transfected cells; host or cells: S. cerevisiae FY250 with pMW106 lacZ reporter
# T6 sequence (P00375 1-187): T1 sequence (P00375 1-187)
# T6 sequence (P06536 524-795 F620S/C656G limits assumed): T1 sequence (P06536 524-795 F620S/C656G limits assumed)
# From the text: as §1, §2
# [7] = biological target: T7, LexA rGR2 / B42 (GSG)2mDHFR (UniProt P00375+P06536, C656G/F620S); experiment: β-galactosidase activity assay, strain V511Y
# T7 construct: expressed in transfected cells; host or cells: S. cerevisiae FY250 with pMW106 lacZ reporter
# T7 sequence (P06536 524-795 F620S/C656G limits assumed): T1 sequence (P06536 524-795 F620S/C656G limits assumed)
# T7 sequence (P00375 1-187): T1 sequence (P00375 1-187)
# From the text: as §1, §2
# [8] = biological target: T8, LexA mDHFR / B42 rGR2 (UniProt P00375+P06536, C656G/F620S); experiment: β-galactosidase activity assay, strain V495Y
# T8 construct: rat Glucocorticoid Receptor (aa 524-795) with point mutations; expressed in transfected cells; host or cells: S. cerevisiae FY250
# T8 sequence (P00375 1-187): T1 sequence (P00375 1-187)
# T8 sequence (P06536 524-795 F620S/C656G limits assumed): T1 sequence (P06536 524-795 F620S/C656G limits assumed)
# From the text: as §1, §2
# [9] = biological target: T9, LexA (GSG)2eDHFR / B42 (GSG)rGR2 (UniProt P06536+P0ABQ4, C656G/F620S); experiment: β-galactosidase activity assay, strain V501Y
# T9 construct: rat Glucocorticoid Receptor (aa 524-795) with point mutations; expressed in transfected cells; host or cells: S. cerevisiae FY250
# T9 sequence (P0ABQ4 1-159): T2 sequence (P0ABQ4 1-159)
# T9 sequence (P06536 524-795 F620S/C656G limits assumed): T1 sequence (P06536 524-795 F620S/C656G limits assumed)
# From the text: as §1, §2
# [10] = biological target: T10, LexA rGR2 / B42 eDHFR (UniProt P06536+P0ABQ4, C656G/F620S); experiment: β-galactosidase activity assay, strain V505Y
# T10 construct: rat Glucocorticoid Receptor (aa 524-795) with point mutations; expressed in transfected cells; host or cells: S. cerevisiae FY250
# T10 sequence (P06536 524-795 F620S/C656G limits assumed): T1 sequence (P06536 524-795 F620S/C656G limits assumed)
# T10 sequence (P0ABQ4 1-159): T2 sequence (P0ABQ4 1-159)
# From the text: as §1, §2
smiles,measurement,setting,value
C[C@@H]1C[C@H]2C3CCC4=CC(=O)C=C[C@]4(C)[C@@]3(F)[C@@H](O)C[C@]2(C)[C@@]1(O)C(=O)NCCSCCCCCCCCCCSCC[C@H](NC(=O)c1ccc(N(C)Cc2cnc3nc(N)nc(N)c3n2)cc1)C(=O)O (stereo partly shown) [D10M],B-gal activity,[1],497 β-galactosidase units
same,B-gal activity,[2],5812 β-galactosidase units
same,B-gal activity,[3],308 β-galactosidase units
same,B-gal activity,[4],2926 β-galactosidase units
same,B-gal activity,[5],2314 β-galactosidase units
same,B-gal activity,[6],1132 β-galactosidase units
same,B-gal activity,[7],−60 β-galactosidase units
same,B-gal activity,[8],513 β-galactosidase units
same,B-gal activity,[9],2286 β-galactosidase units
same,B-gal activity,[10],1160 β-galactosidase units
